Drawing on BindingDB's records for doi:10.1021/jm970021c (Warner-Lambert, 1997), this text covers EC50 for 13 compounds.

The assay can be described thus: Agonist activation of human dopamine receptor stimulating mitogenesis in Dopamine receptor D4-transfected CHO pro-5 cells using [3H]thymidine as radioligand.

`N#Cc1ccccc1N1CCN(CNC(=O)c2ccc(Cl)cc2)CC1` [4-Chloro-N-[4-(2-cyano-phenyl)-piperazin-1-ylmethyl]-benzamide] displayed an EC50 greater than 3.9 nM.
In the case of `Cc1ccc(C(=O)NCN2CCN(c3ccccc3Cl)CC2)cc1` [N-[4-(2-Chloro-phenyl)-piperazin-1-ylmethyl]-4-methyl-benzamide] it was 218 nM; in that of `COc1ccccc1N1CCN(CNC(=O)c2cccc(Cl)c2)CC1` [3-Chloro-N-[4-(2-methoxy-phenyl)-piperazin-1-ylmethyl]-benzamide], 15 nM; in that of `N#Cc1ccccc1N1CCN(CNC(=O)c2cccc(Cl)c2)CC1` [3-Chloro-N-[4-(2-cyano-phenyl)-piperazin-1-ylmethyl]-benzamide], 5.3 nM.
In the case of `Cc1cccc(C(=O)NCN2CCN(c3ccccc3Cl)CC2)c1` [N-[4-(2-Chloro-phenyl)-piperazin-1-ylmethyl]-3-methyl-benzamide] it was 16 nM; in that of `O=C(NCN1CCN(c2ccccc2Cl)CC1)c1ccc(Cl)cc1` [4-Chloro-N-[4-(2-chloro-phenyl)-piperazin-1-ylmethyl]-benzamide], 8.4 nM; in that of `COc1ccccc1N1CCN(CNC(=O)c2ccc(Cl)cc2)CC1` [4-Chloro-N-[4-(2-methoxy-phenyl)-piperazin-1-ylmethyl]-benzamide], 8.4 nM.
In the case of `COc1ccccc1N1CCN(CNC(=O)c2cccc(C)c2)CC1` [N-[4-(2-Methoxy-phenyl)-piperazin-1-ylmethyl]-3-methyl-benzamide] it was 13 nM; in that of `Cc1ccc(C(=O)NCN2CCN(c3ccccc3C#N)CC2)cc1` [N-[4-(2-Cyano-phenyl)-piperazin-1-ylmethyl]-4-methyl-benzamide], 1.2 nM.
On to `N#Cc1ccccc1N1CCN(CNC(=O)c2ccccc2)CC1` [N-[4-(2-Cyano-phenyl)-piperazin-1-ylmethyl]-benzamide], for which a half-maximal effect (EC50) was put at 24 nM.
The same measure for `COc1ccccc1N1CCN(CNC(=O)c2ccccc2)CC1` [N-[4-(2-Methoxy-phenyl)-piperazin-1-ylmethyl]-benzamide]: 31 nM.
In the case of `COc1ccccc1N1CCN(CNC(=O)c2ccc(C)cc2)CC1` [N-[4-(2-Methoxy-phenyl)-piperazin-1-ylmethyl]-4-methyl-benzamide] it was 3.4 nM; in that of `O=C(NCN1CCN(c2ccccc2Cl)CC1)c1ccccc1` [N-[4-(2-Chloro-phenyl)-piperazin-1-ylmethyl]-benzamide], 106 nM.
